For eleven molecules, T/C results are on record in PubChem BioAssay AID248 (DTP/NCI, 2004).

The subject of this assay is L1210 leukemia ip in BDF1 mice, survival T/C. The experiment in a line: NCI In Vivo Anticancer Drug Screen. Data for tumor model L1210 Leukemia (intraperitoneal) in B6D2F1 (BDF1) mice. The settings on record: endpoint: mean survival time, higher = longer survival. Put shortly: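 Antitumor effect is assessed in tumor-bearing animals. Survival in the compound arm is compared with a vehicle-dosed control arm and expressed as their quotient.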

[1] abbreviates: dose: 100.0 mg/kg/injection, schedule: Q04DX003 (ip), vehicle: Klucel (hydroxypropylcellulose) (HPC).
Where [2] appears, read: dose: 200.0 mg/kg/injection, schedule: Q04DX003 (ip), vehicle: Klucel (hydroxypropylcellulose) (HPC).
The mark [3] stands for this setting: dose: 400.0 mg/kg/injection, schedule: Q04DX003 (ip), vehicle: Klucel (hydroxypropylcellulose) (HPC).

Values joined by “and” are separate entries in the source; they are usually repeats but may differ in a detail not shown here. Identical values can stand only once. Inconclusive results and toxic doses are left out.

For `CC(=O)OC1CCC2C3CCC4=CC(=O)C(C(O)(C(F)(F)F)C(F)(F)F)CC4(C)C3CCC12C` (configuration not stated), the T/C (dose: 100.0 mg/kg/injection, schedule: Q01DX001 (sc), vehicle: steriod suspending solution) was 106 % of control; the T/C (dose: 200.0 mg/kg/injection, schedule: Q01DX001 (sc), vehicle: steriod suspending solution) was 101 % of control; the T/C (dose: 400.0 mg/kg/injection, schedule: Q01DX001 (sc), vehicle: steriod suspending solution) was 101 % of control.

Consider `CC(=O)CC(=O)C(F)(F)F.CC(=O)CC(=O)C(F)(F)F.CC(=O)CC(=O)C(F)(F)F.CC(=O)CC(=O)C(F)(F)F.[Th]`, for which the T/C is, setting by setting: (dose: 100.0 mg/kg/injection, schedule: Q01DX005 (ip), vehicle: gum acacia) 90 % of control; (dose: 100.0 mg/kg/injection, schedule: Q04DX002 (ip), vehicle: gum acacia) 96 % of control; (dose: 200.0 mg/kg/injection, schedule: Q01DX005 (ip), vehicle: gum acacia) 93 % of control; (dose: 200.0 mg/kg/injection, schedule: Q01DX009 (ip), vehicle: gum acacia) 101 % of control; (dose: 200.0 mg/kg/injection, schedule: Q04DX002 (ip), vehicle: gum acacia) 96 % of control; (dose: 400.0 mg/kg/injection, schedule: Q01DX005 (ip), vehicle: gum acacia) 90 % of control. In addition, the T/C reads like this: (dose: 400.0 mg/kg/injection, schedule: Q01DX009 (ip), vehicle: gum acacia) 94 % of control; (dose: 400.0 mg/kg/injection, schedule: Q04DX002 (ip), vehicle: gum acacia) 107 % of control.

As for `CC(=O)N(C)C(C(=O)N1CC(C)CC1C(=O)N(C)C1C(=O)NC(CC(C)C)C(=O)N2CC(C)CC2C(=O)NC(CC(C)C)C(=O)N(C)C(C(C)C)C(=O)N2CCCC2C(=O)N(C)C(CC(C)C)C(=O)NCC(=O)OC1C)C(C)C` (configuration not stated), the T/C is 104 % of control (dose: 18.75 mg/kg/injection, schedule: Q01DX009 (ip), vehicle: Klucel (hydroxypropylcellulose) (HPC)); 109 % of control (dose: 37.5 mg/kg/injection, schedule: Q01DX009 (ip), vehicle: Klucel (hydroxypropylcellulose) (HPC)); 101 % of control (dose: 75.0 mg/kg/injection, schedule: Q01DX009 (ip), vehicle: Klucel (hydroxypropylcellulose) (HPC)).

Regarding `CCN(CC)CCCC(C)NC(=O)c1cc(=O)[nH]c(=O)[nH]1` (configuration not stated), the T/C is 106 % of control (dose: 25.0 mg/kg/injection, schedule: Q01DX009 (ip), vehicle: water); 96 % of control (dose: 50.0 mg/kg/injection, schedule: Q01DX009 (ip), vehicle: water); 103 % of control and 91 % of control (dose: 100.0 mg/kg/injection, schedule: Q01DX009 (ip), vehicle: water); 104 % of control (dose: 100.0 mg/kg/injection, schedule: Q04DX003 (ip), vehicle: water); 101 % of control (dose: 200.0 mg/kg/injection, schedule: Q04DX003 (ip), vehicle: water).

For `Cc1ccc(C(=O)N/N=C/c2c(O)ccc3ccccc23)cc1`, the T/C by setting is: (dose: 100.0 mg/kg/injection, schedule: Q04DX002 (ip), vehicle: Klucel (hydroxypropylcellulose) (HPC)) 89 % of control; (dose: 200.0 mg/kg/injection, schedule: Q04DX002 (ip), vehicle: Klucel (hydroxypropylcellulose) (HPC)) 89 % of control; (dose: 400.0 mg/kg/injection, schedule: Q04DX002 (ip), vehicle: Klucel (hydroxypropylcellulose) (HPC)) 96 % of control.

`O=C(NC(=S)Nc1cc(Cl)ccc1Cl)c1ccc(Cl)cc1Cl`: the T/C was 92 % of control (dose: 100.0 mg/kg/injection, schedule: Q01DX001 (ip), vehicle: saline with Tween-80); 94 % of control and 97 % of control (dose: 100.0 mg/kg/injection, schedule: Q01DX009 (ip), vehicle: saline with Tween-80); 87 % of control and 90 % of control (dose: 100.0 mg/kg/injection, schedule: Q04DX002 (ip), vehicle: saline with Tween-80); 97 % of control (dose: 100.0 mg/kg/injection, schedule: Q04DX003 (ip), vehicle: saline with Tween-80); 94 % of control (dose: 200.0 mg/kg/injection, schedule: Q01DX001 (ip), vehicle: saline with Tween-80); 93 % of control and 97 % of control (dose: 200.0 mg/kg/injection, schedule: Q01DX009 (ip), vehicle: saline with Tween-80). For the same molecule, the T/C was 97 % of control and 87 % of control (dose: 200.0 mg/kg/injection, schedule: Q04DX002 (ip), vehicle: saline with Tween-80); 92 % of control (dose: 200.0 mg/kg/injection, schedule: Q04DX003 (ip), vehicle: saline with Tween-80); 94 % of control (dose: 400.0 mg/kg/injection, schedule: Q01DX001 (ip), vehicle: saline with Tween-80); 103 % of control and 105 % of control (dose: 400.0 mg/kg/injection, schedule: Q01DX009 (ip), vehicle: saline with Tween-80); 93 % of control and 101 % of control (dose: 400.0 mg/kg/injection, schedule: Q04DX002 (ip), vehicle: saline with Tween-80); 95 % of control (dose: 400.0 mg/kg/injection, schedule: Q04DX003 (ip), vehicle: saline with Tween-80).

Consider `C1CCC(C2CCCC[N-]2)[N-]C1.[Cl][Cu][Cl]` (configuration not stated), for which the T/C is 95 % of control (dose: 1.56 mg/kg/injection, schedule: Q01DX009 (ip), vehicle: Klucel (hydroxypropylcellulose) (HPC)); 102 % of control (dose: 3.13 mg/kg/injection, schedule: Q01DX009 (ip), vehicle: Klucel (hydroxypropylcellulose) (HPC)); 86 % of control (dose: 6.25 mg/kg/injection, schedule: Q01DX009 (ip), vehicle: Klucel (hydroxypropylcellulose) (HPC)); 109 % of control under setting [1]; 95 % of control under setting [2]; 101 % of control under setting [3].

Take `O=CN(c1ccccc1)c1ccccc1`: the T/C by setting is: (dose: 100.0 mg/kg/injection, schedule: Q01DX009 (ip), vehicle: other) 109 % of control; (dose: 100.0 mg/kg/injection, schedule: Q04DX003 (ip), vehicle: saline) 100 % of control; (dose: 200.0 mg/kg/injection, schedule: Q01DX009 (ip), vehicle: other) 106 % of control; (dose: 200.0 mg/kg/injection, schedule: Q04DX003 (ip), vehicle: saline) 102 % of control; (dose: 400.0 mg/kg/injection, schedule: Q01DX009 (ip), vehicle: other) 106 % of control; (dose: 400.0 mg/kg/injection, schedule: Q04DX003 (ip), vehicle: saline) 109 % of control.

`CC(C)C1CC(C)(C)c2cc3c(cc2O1)C(C)(C)CC(C(C)C)O3` (configuration not stated): the T/C under setting [1] was 91 % of control, the T/C under setting [2] was 106 % of control and the T/C under setting [3] is 96 % of control.

For `CC(C)n1c2c([n+](C)c1/C=C/c1ccccc1)C(=O)c1ccccc1C2=O`, the T/C by setting is: (dose: 1.0 mg/kg/injection, schedule: Q01DX009 (ip), vehicle: Klucel (hydroxypropylcellulose) (HPC)) 106 % of control; (dose: 1.0 mg/kg/injection, schedule: Q04DX003 (ip), vehicle: Klucel (hydroxypropylcellulose) (HPC)) 107 % of control; (dose: 2.0 mg/kg/injection, schedule: Q01DX009 (ip), vehicle: Klucel (hydroxypropylcellulose) (HPC)) 101 % of control; (dose: 2.0 mg/kg/injection, schedule: Q04DX003 (ip), vehicle: Klucel (hydroxypropylcellulose) (HPC)) 96 % of control; (dose: 4.0 mg/kg/injection, schedule: Q04DX003 (ip), vehicle: Klucel (hydroxypropylcellulose) (HPC)) 86 % of control; (dose: 5.0 mg/kg/injection, schedule: Q01DX001 (ip), vehicle: saline) 103 % of control.

`CC1CN=C(c2ccc(NC(=O)C3CCC(C(=O)Nc4ccc(C5=NCC(C)N5)cc4)CC3)cc2)N1` (configuration not stated): the T/C runs as follows: (dose: 31.0 mg/kg/injection, schedule: Q01DX015 (ip), vehicle: methylcellulose (MC)) 159 % of control; (dose: 62.0 mg/kg/injection, schedule: Q01DX015 (ip), vehicle: methylcellulose (MC)) 113 % of control.
